Experimental data published in publication PMC7516806, “Hybrid Antimicrobial Peptide Targeting Staphylococcus aureus and Displaying Anti-infective Activity in a Murine Model” (Frontiers in Microbiology, 2020).
Positions of bridges follow the written chain, without caps; N, C: chain ends. Residues, ends and D or L forms follow the SMILES beside them.

Columns and labels:
S. typhimurium 14028 = assay: MIC, modified microtiter dilution; type: cell-based, Salmonella typhimurium; conditions: MHB, 2–7 × 10^5 CFU/ml, 37°C, 24 h, no turbidity, at least three independent repeats
Text: (§1) The experiment was repeated at least three times independently.

S. typhimurium 7731 = assay: MIC, modified microtiter dilution; type: cell-based, Salmonella typhimurium; conditions: MHB, 2–7 × 10^5 CFU/ml, 37°C, 24 h, no turbidity, at least three independent repeats
Text: as §1

RAW 264.7 cells = assay: Cytotoxicity, MTT dye reduction assay; type: cell-based, murine
Description: The cytotoxicity of peptides was determined by healthy human erythrocytes and the murine macrophage cell line RAW 264.7 via a hemolysis assay and MTT dye reduction assay, respectively ([Wang et al., 2018]). In the hemolysis assay, fresh hRBCs from healthy people were centrifuged for 5 min at 1,000 × g and then washed three times with PBS (pH = 7.2). The 100 μL erythrocyte suspension and peptides were incubated for 1.5 h in an incubator at 37°C. The 96-well plates were centrifuged at 1,000 × g for 5 min, and the supernatants were carefully aspirated. The absorbance at 570 nm indicated the leakage of hemoglobin. The hRBCs in the PBS sample was used as the negative control, and 0.1% Triton X-100 addition served as the positive control. In the MTT dye reduction assay, 1.0–2.0 × 10^5 cells were plated in 96-well plates and then treated with various concentrations of peptides for 4 h at 37°C in a 5% CO2 incubator. Subsequently, 50 μL of MTT was added to the plated cells at a final concentration of 0.5 mg/mL and incubated for 4 h. Then, the cells were centrifuged at 1000 × g for 5 min, and the supernatants were discarded. Formazan crystals were dissolved in 150 μL of DMSO, and the OD570 nm was measured using a microplate reader (TECAN GENios F129004; TECAN, Austria). The experiment was repeated three times independently.

E. coli K99 = conditions: MHB, 2–7 × 10^5 CFU/ml, 37°C, 24 h, no turbidity, at least three independent repeats
Summary of the method: (§2)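 Peptides serially diluted in 0.01% acetic acid/0.2% BSA and mixed 1:1 with mid-log bacteria in MHB at 2–7 × 10^5 CFU/ml. Plates held at 37°C for 24 h. Broth with cells and broth alone served as controls; at least three independent repeats.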

E. coli K88 = conditions: MHB, 2–7 × 10^5 CFU/ml, 37°C, 24 h, no turbidity, at least three independent repeats
Summary of the method: as §2

[1] = test system: lipoteichoic acid (LTA) from S. aureus; assay: LTA binding, BODIPY-TR-cadaverine displacement; set-up: species or system Staphylococcus aureus; conditions: comparison among peptides, BC displacement
Description: Peptides binding to LTA were assayed using the BC (Sigma, United States) displacement method ([Zorko and Jerala, 2008]). The final concentration of 50 μg/mL LTA from S. aureus was incubated with 5 μg/mL BC in Tris-HCl buffer (50 mM, pH 7.4) for 4 h in a shaking incubator at 37°C. The peptides were then serially diluted in Tris–HCl buffer, and an equal volume solution was added to the 96-well plates. The fluorescence was measured (excitation λ = 580 nm, emission λ = 620 nm) on a spectrofluorophotometer (Infinite 200 Pro, Tecan, China). The experiment was conducted three times independently.

L. plantarum 8014 = assay: MIC, modified microtiter dilution; type: cell-based, Lactobacillus plantarum; conditions: 2–7 × 10^5 CFU/ml, 37°C, 24 h, no turbidity, at least three independent repeats
Text: as §1

For CC(C)C[C@H](NC(=O)[C@H](CC(C)C)NC(=O)[C@H](Cc1c[nH]c2ccccc12)NC(=O)[C@H](Cc1c[nH]c2ccccc12)NC(=O)[C@H](Cc1c[nH]c2ccccc12)NC(=O)[C@H](CCCNC(=N)N)NC(=O)[C@@H]1CSSC[C@H](N)C(=O)N[C@@H](C)C(=O)N[C@@H](CO)C(=O)N[C@@H](Cc2ccc(O)cc2)C(=O)N[C@@H](Cc2ccccc2)C(=O)N1)C(N)=O [Peptide S2] (H-CASYFCRWWWLL-NH2; disulfide 1-6; N-terminus assumed), the “MIC S. typhimurium 14028” value (S. typhimurium 14028) was over 64 µM, the “MIC S. typhimurium 7731” value (S. typhimurium 7731) was over 64 µM and the “killing activity against RAW 264.7 cells” value (RAW 264.7 cells) was “no killing activity against RAW 264.7 cells”. The “RAW 264.7 cell survival rate” value (RAW 264.7 cells; highest concentration of 128 μM, 4 h, three independent repeats) was 105%, the “MIC E. coli K99” value (E. coli K99) was over 64 µM and the “MIC E. coli K88” value (E. coli K88) was over 64 µM. For the same compound, the “relative binding capacity to LTA” value [1] was “stronger binding capacity to LTA than S1 and S3” and the “MIC L. plantarum 8014” value (L. plantarum 8014) was over 64 µM.
